Measurements published in patent US7786081B2, “Peptide composition” (Pepsyn Ltd., priority 1993, dated 2010).

Experiments:
[1] = known agent, stated drawback; cited from earlier work
[2] = system: Human keratinocytes (HatKat); test: Growth of keratinocytes (cell count, Coulter counter); type: cell-based
Experimental: Human keratinocytes (HatKat) were grown in keratinocyte growth medium (TCS Cellworks Ltd.) until 20% confluence. Then, in the same medium, the keratinocytes were grown for three days with 0.5% foetal calf serum (FCS), at which point the cells were counted in a Coulter® counter. The cell numbers obtained are set out in Table 3 below.

Molecule | erythema at the site of application [1] | increase in the growth of keratinocytes ([2]; 10 ng/ml EGF vs medium with 0.5% FCS) | Number of cells ([2]; Medium with 0.5% FCS + 10 ng/ml EGF, three days, medium alone 23,777)
CC1=C(/C=C/C(C)=C/C=C/C(C)=C/C(=O)O)C(C)(C)CCC1 [all-trans retinoic acid] | produces marked erythema |  | 
EGF: epidermal growth factor, comparator in the keratinocyte growth test (NSDSECPLSHDGYCLHDGVCMYIEALDKYACNCVVGYIGERCQYRDLKWWELR; UniProt P01133 971-1023, looked up) |  | relatively modest increase | 29,356
